Source: patent publication US11098063B2, “Diazabicyclic substituted imidazopyrimidines and their use for the treatment of breathing disorders” (Bayer Aktiengesellschaft, priority 2017, dated 2021)

What was measured:
Type in all cases: cell-based
human TASK-1 [1] = target: T1, human TASK-1 (Homo sapiens (Human), UniProt O14649); assay: Inhibition of recombinant TASK-1 in stably transfected CHO cells (voltage-sensitive dye, KCl depolarization); conditions: depolarization by 40 mM potassium chloride
Summary of the method: (§1)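 Stably transfected CHO cells loaded with a voltage-sensitive membrane-potential dye were depolarized with 40 mM KCl in the presence of compound. IC50 is the concentration blocking half of the KCl-induced depolarization.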

human TASK-1 [2] = target: T1, human TASK-1; assay: Two-electrode voltage clamp analysis of human TASK-1 channel in Xenopus laevis oocytes; conditions: human TASK-1 expressed in Xenopus laevis oocytes, room temperature
Method: (§2) B-1. In Vitro Electrophysiological Analysis of the Human TASK-1 and TASK-3 Channels Via Two-Electrode Voltage Clamp Technique in Xenopus laevis Oocytes
(§3) Xenopus laevis oocytes were selected as described elsewhere by way of illustration [Decher et al., FEBS Lett. 492, 84-89 (2001)]. Subsequently, the oocytes were injected with 0.5-5 ng of a cRNA solution coding for TASK-1 or TASK-3. For the electrophysiological analysis of the channel proteins expressed in the oocytes, the two-electrode voltage clamp technique [Stühmer, Methods Enzymol. 207, 319-339 (1992)] was used. The measurements were conducted as described [Decher et al., FEBS Lett. 492, 84-89 (2001)] at room temperature (21-22° C.) using a Turbo TEC 10CD amplifier (NPI), recorded at 2 kHz and filtered with 0.4 kHz. Substance administration was performed using a gravitation-driven perfusion system. Here, the oocyte is located in a measuring chamber and exposed to the solution stream of 10 ml/min. The level in the measuring chamber is monitored and regulated by sucking off the solution using a peristaltic pump.

human TASK-3 [3] = target: T2, human TASK-3 (Homo sapiens (Human), UniProt Q9NPC2); assay: Two-electrode voltage clamp analysis of human TASK-3 channel in Xenopus laevis oocytes; conditions: human TASK-3 expressed in Xenopus laevis oocytes, room temperature
Method: as §2, §3

human TASK-3 [4] = target: T2, human TASK-3; assay: Inhibition of recombinant TASK-3 in stably transfected CHO cells (voltage-sensitive dye, KCl depolarization); conditions: depolarization by 40 mM potassium chloride
Summary of the method: as §1

T1 sequence (O14649 whole entry): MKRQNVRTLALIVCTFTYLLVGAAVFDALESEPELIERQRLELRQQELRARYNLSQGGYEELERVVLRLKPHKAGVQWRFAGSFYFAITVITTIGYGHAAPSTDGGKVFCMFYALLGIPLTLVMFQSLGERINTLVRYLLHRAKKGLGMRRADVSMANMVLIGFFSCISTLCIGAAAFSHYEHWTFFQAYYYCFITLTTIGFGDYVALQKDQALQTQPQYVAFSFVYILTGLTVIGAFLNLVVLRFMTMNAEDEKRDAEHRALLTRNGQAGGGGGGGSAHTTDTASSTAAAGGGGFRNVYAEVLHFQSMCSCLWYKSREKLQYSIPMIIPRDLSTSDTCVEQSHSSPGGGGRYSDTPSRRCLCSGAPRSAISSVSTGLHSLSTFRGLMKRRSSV
T2 sequence (Q9NPC2 whole entry): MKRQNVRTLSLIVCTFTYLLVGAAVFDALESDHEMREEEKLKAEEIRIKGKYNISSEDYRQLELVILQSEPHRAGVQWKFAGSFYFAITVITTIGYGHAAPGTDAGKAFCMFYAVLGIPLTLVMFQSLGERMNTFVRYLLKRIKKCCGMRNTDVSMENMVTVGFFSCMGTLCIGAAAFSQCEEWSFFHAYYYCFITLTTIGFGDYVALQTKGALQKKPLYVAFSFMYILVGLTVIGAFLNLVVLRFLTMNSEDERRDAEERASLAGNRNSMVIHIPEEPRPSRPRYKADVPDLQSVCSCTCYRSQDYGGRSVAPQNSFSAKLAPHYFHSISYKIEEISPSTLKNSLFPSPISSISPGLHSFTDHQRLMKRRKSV

IC50 (human TASK-1 [2]) [nM]	IC50 (human TASK-3 [3]) [nM]	SMILES	IC50 (human TASK-1 [1]) [nM]	IC50 (human TASK-3 [4]) [nM]
44.4 ± 4.4	71.8 ± 15.5	COc1ccc(F)c(C(=O)N2CC3CCC2CN3Cc2c(-c3ccc(Cl)cc3)nc3ncccn23)n1 (stereo not shown) [Example 41]	1500	100
17.9 ± 2.2	367 ± 67.6	CC(C)c1ccc(-c2nc3ncccn3c2CN2CC3CCC2CN3C(=O)c2ncoc2C2CC2)cc1 (single isomer, unassigned) [Example 27, (5-Cyclopropyl-1,3-oxazol-4-yl)(5-{[2-(4-isopropylphenyl)imidazo[1,2-a]pyrimidin-3-yl]methyl}-2,5-diazabicyclo[2.2.2]oct-2-yl)methanone]	1200	10
31.2 ± 5.8	140 ± 34.6	COc1ccc(Cl)c(C(=O)N2CC3CCC2CN3Cc2c(-c3ccc(C(C)C)cc3)nc3ncccn23)n1 (single isomer, unassigned) [Example 26, (3-Chloro-6-methoxypyridin-2-yl)(5-{[2-(4-isopropylphenyl)imidazo[1,2-a]pyrimidin-3-yl]methyl}-2,5-diazabicyclo[2.2.2]oct-2-yl)methanone]	1400	16
–	–	COc1cccc(C(=O)N2C3CCC2CN(Cc2c(-c4ccc(C(C)C)cc4)nc4ncccn24)C3)n1 [Example 63]	1700	15
–	–	CCCOC(=O)N1C2CCC1CN(Cc1c(-c3ccc(Cl)cc3)nc3ncccn13)C2 [Example 126, propyl 3-{[2-(4-chlorophenyl)imidazo[1,2-a]pyrimidin-3-yl]methyl}-3,8-diazabicyclo[3.2.1]octane-8-carboxylate]	280	14
–	–	CC(C)(C)OC(=O)N1C2CCC1CN(Cc1c(-c3ccc(Cl)cc3)nc3ncccn13)C2 [Example 6, tert-Butyl 3-{[2-(4-chlorophenyl)imidazo[1,2-a]pyrimidin-3-yl]methyl}-3,8-diazabicyclo[3.2.1]octane-8-carboxylate]	1400	41
–	–	Cc1scnc1C(=O)N1C2CCC1CN(Cc1c(-c3ccc(Cl)cc3)nc3ncccn13)C2 [Example 59]	3000	39
–	–	COc1ccc(Cl)c(C(=O)N2C3COCC2CN(Cc2c(-c4ccc(Cl)cc4)nc4ncccn24)C3)n1 [Example 14, (3-Chloro-6-methoxypyridin-2-yl)(7-{[2-(4-chlorophenyl)imidazo[1,2-a]pyrimidin-3-yl]methyl}-3-oxa-7,9-diazabicyclo[3.3.1]non-9-yl)methanone]	7600	170
–	–	CC(C)c1ccc(-c2nc3ncccn3c2CN2CC3CCC2CN3C(=O)c2ncoc2C2CC2)cc1 (stereo not shown) [Example 70]	1900	20
–	–	Cc1sc(C(=O)N2C3CCC2CN(Cc2c(-c4ccc(Cl)cc4)nc4ncccn24)C3)nc1Br [Example 52]	1300	52
–	–	Cc1ocnc1C(=O)N1C2CCC1CN(Cc1c(-c3ccc(Cl)cc3)nc3ncccn13)C2 [Example 48]	400	23
–	–	COc1ccc(F)c(C(=O)N2C3COCC2CN(Cc2c(-c4ccc(C(C)C)cc4)nc4ncccn24)C3)n1 [Example 18, (3-Fluoro-6-methoxypyridin-2-yl)(7-{[2-(4-isopropylphenyl)imidazo[1,2-a]pyrimidin-3-yl]methyl}-3-oxa-7,9-diazabicyclo[3.3.1]non-9-yl)methanone]	910	8.6

SMILES	IC50 (human TASK-1 [2]) [nM]	IC50 (human TASK-3 [3]) [nM]	IC50 (human TASK-1 [1]) [nM]	IC50 (human TASK-3 [4]) [nM]
CC(C)c1ccc(-c2nc3ncccn3c2CN2CC3COCC(C2)N3C(=O)c2cccc(OC(F)F)n2)cc1 [Example 19, [6-(Difluoromethoxy)pyridin-2-yl](7-{[2-(4-isopropylphenyl)imidazo[1,2-a]pyrimidin-3-yl]methyl}-3-oxa-7,9-diazabicyclo[3.3.1]non-9-yl)methanone]	239 ± 2.7	774 ± 67.1	22000	59
